We go through 13 compounds from PubChem BioAssay (NCI).

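Where inhibition never reached the appropriate level, the endpoint shown equals the highest concentration tested. Otherwise, values were interpolated linearly from a five-concentration, 48-hour dose response in 96-well plates. GI50 marks 50% less growth. TGI denotes the concentration required for complete inhibition of growth.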

Among the test systems are CAKI-1 renal; HT29 colon; MALME-3M melanoma; M14 melanoma; HL-60(TB) leukemia; A549 NSCLC; 786-0 renal; SN12C renal; OVCAR-3 ovarian; HOP-92 NSCLC.
Holding throughout (assay): NCI-60 cell line screen, 48 h

As to `CC(=O)/C(C)=N/N/C(N)=N\S(=O)(=O)c1cc(C(=O)Nc2ccccc2)c(Cl)cc1SCc1ccccc1`, the GI50 is more than 100 µM in the experiment with CAKI-1 renal; 61.6 µM in the experiment with HT29 colon; more than 100 µM with MALME-3M melanoma; 1.08 µM in the experiment on M14 melanoma; 2.36 µM in the experiment on HL-60(TB) leukemia; 30.5 µM with A549 NSCLC. In addition, the GI50 in the experiment with 786-0 renal was 0.766 µM; with SN12C renal, 28.2 µM; in the experiment on OVCAR-3 ovarian, more than 100 µM. Besides, the TGI with CAKI-1 renal is more than 100 µM; in the experiment on HT29 colon, more than 100 µM; with MALME-3M melanoma it was more than 100 µM; with M14 melanoma, 3.95 µM; with HL-60(TB) leukemia, 24.2 µM; in the experiment with A549 NSCLC, more than 100 µM. The TGI in the experiment with 786-0 renal, in the experiment on SN12C renal and with OVCAR-3 ovarian was more than 100 µM in each case.
With `O=Cc1coc2ccccc2c1=O`, the TGI in the experiment with CAKI-1 renal stood at 52.9 µM; in the experiment on HT29 colon, 46.1 µM; in the experiment on MALME-3M melanoma it was 30.2 µM; in the experiment on M14 melanoma, 38.5 µM; in the experiment on HL-60(TB) leukemia, 42.3 µM; in the experiment with A549 NSCLC, 84.9 µM. Moreover, the TGI with 786-0 renal is 37.9 µM; with SN12C renal it was 58.6 µM; with OVCAR-3 ovarian it was more than 100 µM.
Regarding `CCC1(OC(C)=O)C(=O)OCc2c1cc1n(c2=O)Cc2cc3ccccc3nc2-1` (stereo not drawn), the TGI in the experiment on CAKI-1 renal is 36 µM; in the experiment on HT29 colon it was more than 100 µM; with HOP-92 NSCLC, more than 100 µM; in the experiment on MALME-3M melanoma it was more than 100 µM; in the experiment on M14 melanoma, more than 33 µM; in the experiment with A549 NSCLC, more than 100 µM. The TGI with 786-0 renal was more than 31.1 µM; in the experiment with SN12C renal, more than 91.9 µM; in the experiment on OVCAR-3 ovarian, more than 100 µM.
For the compound `COC1=C(OC)CCC(/C(C#N)=C/c2ccc(OC)c(OC)c2)=C1`, the TGI in the experiment on CAKI-1 renal, in the experiment on HT29 colon, in the experiment on HOP-92 NSCLC, in the experiment on M14 melanoma, in the experiment on A549 NSCLC and in the experiment on 786-0 renal was more than 100 µM in each case. Besides, the TGI in the experiment on SN12C renal and in the experiment with OVCAR-3 ovarian was more than 100 µM each time.
Consider `Cc1ccc(Nc2ccc(Nc3ccc(C)cc3)c3c2C(=O)c2c(O)ccc(O)c2C3=O)cc1`, for which the TGI with CAKI-1 renal, in the experiment on HOP-92 NSCLC, with MALME-3M melanoma, with M14 melanoma, in the experiment on HL-60(TB) leukemia and with A549 NSCLC was more than 100 µM in each case. Moreover, the TGI in the experiment with 786-0 renal, in the experiment with SN12C renal and in the experiment with OVCAR-3 ovarian was more than 100 µM throughout.
`CCNCC(O)c1ccc(N)c([N+](=O)[O-])c1` (stereo not drawn): the TGI in the experiment on CAKI-1 renal, in the experiment with HT29 colon, with M14 melanoma, in the experiment with HL-60(TB) leukemia, with A549 NSCLC and in the experiment on 786-0 renal was more than 100 µM each time. Also, the TGI with SN12C renal and with OVCAR-3 ovarian was more than 100 µM throughout.
`O=C(/C=C/c1cccc(Cl)c1)c1ccc(Cl)cc1Cl`: the GI50 in the experiment with CAKI-1 renal is 8.94 µM; in the experiment on HOP-92 NSCLC, 6.17 µM; in the experiment with M14 melanoma, 14 µM; in the experiment on HL-60(TB) leukemia it was 25.3 µM; in the experiment with A549 NSCLC it was 10.4 µM; with 786-0 renal, 12.9 µM. For the same compound, the GI50 is 14.7 µM in the experiment with SN12C renal and 8.54 µM with OVCAR-3 ovarian. Besides, the TGI in the experiment with CAKI-1 renal was 18.2 µM; with HOP-92 NSCLC, 16.2 µM; in the experiment with M14 melanoma it was 31 µM; with HL-60(TB) leukemia, more than 50 µM; in the experiment with A549 NSCLC, 29.7 µM; in the experiment on 786-0 renal it was 27.6 µM. In addition, the TGI in the experiment on SN12C renal is 32 µM; with OVCAR-3 ovarian, 17.3 µM.
As to `COc1ccc(O)c2c1C(=O)CCCC2=O`, the TGI in the experiment on CAKI-1 renal, in the experiment with HT29 colon, in the experiment on MALME-3M melanoma, with M14 melanoma, in the experiment with HL-60(TB) leukemia and in the experiment on A549 NSCLC was more than 100 µM each time. Besides, the TGI in the experiment with 786-0 renal, in the experiment on SN12C renal and in the experiment with OVCAR-3 ovarian was more than 100 µM throughout.
In the case of `Fc1ccccc1C1CC(C(c2ccccc2)c2ccccc2)=Nc2ccccc2S1` (stereo not drawn), the TGI worked out at 20.1 µM in the experiment on CAKI-1 renal; 26.3 µM in the experiment with HT29 colon; 29.5 µM in the experiment on MALME-3M melanoma; 25.7 µM with M14 melanoma; 16.6 µM in the experiment with HL-60(TB) leukemia; 46.4 µM in the experiment on A549 NSCLC. Besides, the TGI worked out at 16.2 µM in the experiment with 786-0 renal, 26 µM in the experiment with SN12C renal and 24.4 µM in the experiment with OVCAR-3 ovarian.
Consider `O=c1cccccc1NCCCCNc1cccccc1=O`, for which the TGI in the experiment with CAKI-1 renal, in the experiment with HT29 colon, with MALME-3M melanoma, with M14 melanoma, with HL-60(TB) leukemia and with A549 NSCLC was more than 100 µM in each case. Moreover, the TGI in the experiment on 786-0 renal, in the experiment on SN12C renal and with OVCAR-3 ovarian was more than 100 µM throughout.
`Cc1cc(C)nc(NS(=O)(=O)c2ccc(NC(=O)c3cccc4cc5ccccc5nc34)cc2)n1`: the TGI in the experiment with CAKI-1 renal was more than 100 µM; in the experiment with HT29 colon, more than 100 µM; in the experiment with MALME-3M melanoma, 56.7 µM; with M14 melanoma, 51.4 µM; with A549 NSCLC, more than 100 µM; with 786-0 renal it was more than 100 µM. Also, the results for the TGI in the experiment with SN12C renal and in the experiment with OVCAR-3 ovarian were more than 100 µM and 65.3 µM, respectively.
Take `COc1cc(C2C(C(=O)Nc3ccccc3)=C(C)NC(C)=C2C(=O)Nc2ccccc2)ccc1O`: the TGI was 33.8 µM in the experiment on HT29 colon; 88.5 µM in the experiment with HOP-92 NSCLC; more than 100 µM with MALME-3M melanoma; 54.2 µM in the experiment on HL-60(TB) leukemia; more than 100 µM in the experiment on A549 NSCLC; more than 100 µM in the experiment on 786-0 renal. For the same compound, the TGI in the experiment with SN12C renal is more than 100 µM; in the experiment on OVCAR-3 ovarian, 55.9 µM.
Regarding `CCOC(=O)C(C)(C)Oc1ccc2c(-c3ccc(Cl)cc3)cc(=O)oc2c1`, the TGI with HT29 colon, with MALME-3M melanoma, with M14 melanoma, with HL-60(TB) leukemia, in the experiment with A549 NSCLC and in the experiment on 786-0 renal was more than 100 µM in each case. In addition, the TGI with SN12C renal and in the experiment on OVCAR-3 ovarian was more than 100 µM each time.
